Results as given in patent publication US20050261162A1, “Pharmaceutical composition for preventing and treating cancer and treating an inflammation” (priority 2001, published 2005).
Values joined by “and” are separate entries in the source; they are usually repeats but may differ in a detail not shown here. Equal values may be shown once.

Legend:
procaspase-3 = experiment: Activation of procaspase-3 in HL-60 cells (western blotting); assay type: cell-based, Human; conditions: 40 μM
Method: To investigate whether xanthorrhizol also induces the activation of procaspase-3, HL-60 cells were treated with 0, 10, 40, 80 μM of xanthorrhizol for 24 hr and was also treated with 80 μM of xanthorrhizol for 0, 2, 4, 6, 9 and 12 hr. The cells were harvested, suspended in 400 μl of lysis buffer described in embodiment 4, incubated 4° C. for 40 min and centrifuged. The supernatant was electrophoresized on the 12% SDS-polyacrylamide gel. Blot was transferred from SDS-polyacrylamide gel to PVDF membrane, blocked with 5% fat-free dry milk-PBST buffer for 2 hr at room temperature and then washed in PBST buffer. Membrane was incubated for 2 hr at room temperature with mouse procaspase-3 monoclonal antibody (Transduction Laboratories, Lexington, Ky., USA). Blot was rinsed with PBST, incubated with mouse horseradish peroxidase-conjugated secondary antibody and again washed 3 times in PBST buffer for 5 min. Transferred protein was visualized with an ECL detection kit.

COX-2 [1] = experiment: Inhibition of COX-2 expression induced by TPA in mouse skin (western blotting); assay type: in vivo, ICR mice; conditions: topical pretreatment 30 min before TPA 10 nmol; skin taken 4 hr later
Method: It is known that the expression of COX-2 increases in mouse skin treated with TPA. Therefore, the effect of xanthorrhizol on COX-2 expression induced by TPA was measured as follows on the basis of this fact.
Female ICR mice of about 5 weeks of age were purchased from the Daehan Experimental Animal Center (Seoul, Korea). Mice were kept on a 12 h light/dark cycle.
The dorsal region of mice was shaved with an electric clipper. 2 days later, xanthorrhizol dissolved in 0.2 ml acetone was topically applied on mouse skin followed by topical application of TPA (10 nmol) dissolved in 0.2 ml acetone after 30 min. Mice were sacrificed by cervical dislocation 4 hr later. The skin was excised and the fat was removed. Fat-free skin was immediately placed in liquid nitrogen and pulverized in mortar.
Pulverized mouse skin was lysed in 400 μl of lysis buffer [150 mM NaCl, 0.5% Triton X-100, 50 mM tris-HCl, pH 7.4, 20 mM EGTA, 1 mM DTT, 1 mM Na3VO4, protease inhibitor cocktail tablet] for 30 min on ice. Lysates were centrifuged and total protein in supernatant was quantified by Bio-Rad protein assay. Aliquots of supernatant containing 30 μg protein were boiled in SDS sample loading buffer for 5 min before electrophoresis on a 12% SDS-polyacrylamide gel. […]

COX-2 [2] = biological target: T1, COX-2 (Mus musculus, UniProt Q05769); experiment: Inhibition of LPS-induced COX-2 activity (PGE2 production) in RAW264.7 macrophage cells; assay type: cell-based; conditions: LPS 1 μg/ml, 16 hr
T1 construct: endogenous in cells; host or cells: RAW264.7 macrophage cells, LPS-stimulated
T1 sequence (Q05769 18-604): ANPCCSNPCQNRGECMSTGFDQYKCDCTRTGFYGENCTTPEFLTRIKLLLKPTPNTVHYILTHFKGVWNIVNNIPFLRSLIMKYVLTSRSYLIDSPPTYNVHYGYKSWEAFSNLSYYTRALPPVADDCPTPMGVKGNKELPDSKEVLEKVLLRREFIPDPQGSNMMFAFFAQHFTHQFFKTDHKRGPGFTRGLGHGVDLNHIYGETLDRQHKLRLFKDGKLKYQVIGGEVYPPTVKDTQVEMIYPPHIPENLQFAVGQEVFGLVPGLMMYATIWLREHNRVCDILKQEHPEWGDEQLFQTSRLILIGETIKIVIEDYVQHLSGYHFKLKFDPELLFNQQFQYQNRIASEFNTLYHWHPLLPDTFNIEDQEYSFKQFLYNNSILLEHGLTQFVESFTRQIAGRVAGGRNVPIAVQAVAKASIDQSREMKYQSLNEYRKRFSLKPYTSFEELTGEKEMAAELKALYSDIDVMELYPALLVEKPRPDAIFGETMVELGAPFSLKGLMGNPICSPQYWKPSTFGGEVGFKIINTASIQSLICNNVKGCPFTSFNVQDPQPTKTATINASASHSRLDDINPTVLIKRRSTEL
Method: If a cell was treated with LPS, the activity of COX-2 increases. On the basis of this fact, to investigate the effect of xanthorrhizol on LPS-induced COX-2 activity, the quantity of PGE2 released from cells was measured as follows.
RAW264.7 macrophage cells were maintained in DMEM supplemented with penicillin-streptomycin and 10% FBS at 37° C., in 5% CO2 of humidified air. The cells (10×10^5 cells/ml, 200 μl) were allowed to adhere for 4 hr in the presence of aspirin (500 μM) in a 96-well culture plate to inhibit irreversibly COX activity in cells, washed 3 times with media, and then incubated in the fresh medium with 1 μg/ml of LPS. Xanthorrhizol was simultaneously added to each well. After an additional 16 hr incubation, the media were recovered and analyzed by PGE2 enzyme immunometric assay. The medium recovered from each well was added to each well attached anti-PGE2 antibody (Amersham Life Science, Arlington Heights, Ill.) with PGE2-acetylcholineesterase tracer, incubated for 18 hr at room temperature and then washed five times with 0.05% Tween 20-phosphate buffer solution. […] Absorbance at 405 nm was measured. PGE2 in each medium treated with xanthorrhizol was quantified in calibration curve graphed with standard PGE2. […] The percentage inhibition was expressed as [1-(PGE2 level of sample/PGE2 level of vehicle treated−control)]×100.

CC(C)=CCC[C@@H](C)c1ccc(C)c(O)c1 [xanthorrhizol]
activation of procaspase-3 (procaspase-3): activated the procaspase-3 to caspase-3
expression of COX-2 induced by TPA (COX-2 [1]): decreased by pretreatment with xanthorrhizol in a dose-dependent manner
IC50 (COX-2 [2]): 321 nM and 320 nM
percentage inhibition of LPS-induced PGE2 production (COX-2 activity) (COX-2 [2]; concentration of not less than 1 μg/ml): not less than 98%
